Point of comparison: `CC1CSC2=CC=NC3=CC=CC(c4ccccc4)C321` (configuration not stated), melting point 164 °C. Against it:
- C#CCn1c(=O)c2c(nc(C#Cc3cccc(OC(C)=O)c3)n2C)n(C)c1=O — higher, 238 °C
- CC(=O)Nc1ccc(Sc2c(NCc3ccccc3)cc(C(=O)O)cc2S(N)(=O)=O)cc1 — higher, 255 to 258 °C
- COc1ccc(Cl)cc1-c1c(N)c(=O)[nH]c2c(C(F)(F)F)cccc12 — higher, 265 to 266 °C
- CC(C)CC1C(OC2CCCCO2)CC(=O)N1C(=O)OC(C)(C)C (configuration not stated) — lower, 81 to 83 °C
- CNC(=S)NS(=O)(=O)c1cc(CCNC(=O)c2cnc3ccccc3c2)ccc1OCCOCC(F)(F)F — lower, 115 to 120 °C
- Cc1ccc2[nH]c(=O)oc(=O)c2c1 — higher, 257 °C
- CC(C)(C)N(NC(=O)c1ccco1)C(=O)c1ccccc1 — lower, 160 to 162 °C
- CC(C)C1COCc2nc3c(N)nc4cc(O)ccc4c3n21 (configuration not stated) — higher, 210 to 215 °C
- Cn1ncnc1COc1nn2cnnc2cc1-c1ccsc1 — higher, 220 to 222 °C
- Cc1nnc(-c2ccc3occ(-c4ccc5c(c4)C(C)(C)CS5)c3c2)o1 — lower, 159 to 160 °C
- O=C(O)C1CCCCN1CC=CP(=O)(O)O (configuration not stated) — not separable, 163 to 165 °C
- COc1cc(C=O)ccc1OCc1nc(-c2ccccc2)sc1C — lower, 133 to 134 °C
- O=[N+]([O-])c1oc2ccc(CN3CCCC3)cc2c1-c1ccccc1 — lower, 111 to 112 °C
- COc1ccccc1NC(=O)Nc1nc(Oc2ccc3ccccc3c2)nc(N(CCC(=O)O)Cc2cccc(Cl)c2)n1 — higher, 215 to 218 °C
- FC(F)(F)c1ccc(-c2cc(Oc3ccc4cccnc4c3)ncn2)cc1 — higher, 178 to 180 °C
- COc1nc(NC(=O)NS(=O)(=O)Nc2nc(C)cc(C)n2)nc(OC)n1 — higher, 172 °C
- Cc1nn(C(=O)NC(C)(C)C)c(=O)n1N — lower, 132 °C
- N#Cc1c[nH]c(-c2ccc3ccccc3c2)c1 — higher, 200 to 206 °C
- CCN(CC)C(=O)Nc1ccc(S(=O)(=O)N2C(=O)C(NCCOCCO)(c3ccccc3Cl)c3cc(Cl)ccc32)cc1 (configuration not stated) — lower, 114 to 118 °C
- O=C(Nc1ccc(-c2cnc(-c3ccc(NC(=O)C4CCCCCC4)cc3)[nH]2)cc1)c1cccnc1 — higher, 256 to 258 °C
- COc1cccc(-c2cc(Cl)cc3c2OC(CN)C3)c1OC (configuration not stated) — lower, 120 to 122 °C
- COC(=O)c1sc(C(F)(F)F)cc1OC — lower, 78 to 79 °C
- O=C(O)CC(CC(=O)O)Cc1ccc(O)cc1 — lower, 117 to 119 °C
- NC(=O)CCC1CCC(=O)N1 (configuration not stated) — higher, 178 °C
- NC(=O)n1cc(-c2ccc(Oc3ccc(N)cc3)cc2)cn1 — lower, 158 to 160 °C
- CC1CCCCC1NC(=O)[C@@H](C)NC(=O)[C@@H](N)CC(=O)O (some centres not stated) — higher, 206 to 209 °C
- Cc1ccc(C=CCC(C(=O)C=Cc2ccc(Cl)cc2)c2ccccc2)cc1 (configuration not stated) — lower, 114 to 118 °C
- C[C@H](NC(=O)c1ccccc1)C(=O)CCl — lower, 120 to 122 °C
- CC(C)(Cc1ccccc1)C(=O)Cn1cncn1 — lower, 79 °C
- CCCCOc1ncc(I)cc1C(N)=O — not separable, 163 to 166 °C
- COc1ccc(-c2cccc(-c3nc(-c4ccc(C(F)(F)F)cc4)oc3C)c2)cc1 — lower, 93 to 94 °C
- COc1ccc(C(=CC#N)c2cc(OC)c(OC)c(OC)c2)cc1N — lower, 97 to 99 °C
- Cc1nnc(CNC(=O)[C@H](Cc2ccccc2)NC(=O)OCc2ccccc2)n1-c1ccc(Cl)cc1C(=O)c1ccccc1 — lower, 84 to 88 °C
- CS(=O)(=O)OCCCc1ccc(SCc2coc(/C=C/c3ccccc3)n2)cc1 — lower, 97 to 98 °C
- CCCCCCCCCCCCCCCOC(=O)c1cccnc1 — lower, 35 °C
- Cc1cccc(-c2nc3cccnn3c2-c2ccnc(N(C(=O)C3CC3)C(=O)C3CC3)c2)c1 — higher, 173 to 175 °C
- CCN1c2ncc(OCc3ccccc3)cc2C(=O)N(C)c2ccc(Cl)nc21 — lower, 159 to 160 °C
- CC(C)(C)OC(=O)NCc1ccc(C(=O)NNC(=O)OCc2ccccc2)cc1 — lower, 160 to 162 °C
- CC(C)(C)n1nnc(NC(=O)C2c3ccccc3Oc3ccccc32)n1 — higher, 230 to 231 °C
- N#Cc1cccc2c1S(=O)(=O)c1ccccc1C2=O — higher, 252 to 254 °C
- CC(=O)OC1CSC(Oc2cccnc2F)C(OC(C)=O)C1OC(C)=O (configuration not stated) — lower, 160 °C
- CCn1c(Cl)c(C=O)c(=O)n(CC)c1=NO — lower, 115 to 116 °C
- COc1ccc(N2CCN(C)CC2)c2c1CCC(C(=O)Nc1ccc(N3CCOCC3)cc1)C2 (configuration not stated) — higher, 230 to 232 °C
- CCOC(=O)C(C)(C)Sc1ccc(O)cc1 — lower, 68 to 69 °C
- COc1cccc([C@@H]2CC[C@H](c3cccc(O)c3)N2C(=O)CNC(=O)Nc2cccc(C(=O)O)c2)c1 (relative stereo) — higher, 172 °C
- COCN(c1cccc2cc(C(N)=O)n(COC)c12)S(=O)(=O)c1cccs1 — higher, 203 to 204 °C
- N=C(N)N(Cc1ccccc1)c1ccc2c3c(cccc13)CC2 — lower, 138 to 140 °C
- OCc1ccccc1CCCc1cc2c(cc1O)CCO2 — lower, 110 to 112 °C
- CC(=O)N(O)Cc1cccc(C#Cc2ccccc2)c1 — lower, 91 to 93 °C
- CCOC(=O)c1nc2ccccn2c1S(N)(=O)=O — higher, 166 to 168 °C
- CCCCCCCCCCCCCCCCCCNC(=O)OC[C@H]1CC[C@@H](CO)O1 (relative stereo) — lower, 79 to 80 °C
- Cc1ccnc(-c2cccc([N+](=O)[O-])c2)c1 — lower, 80 to 82 °C
- Oc1cc2onc(C3CCCCC3)c2cc1O — higher, 177 °C
- COc1ccc(-c2cnc3[nH]cc(C(=O)C(C)(C)C)c3n2)cc1N1CCCC1 — higher, 211 to 213 °C
- Cc1ccc(-c2cc(C=O)nn2-c2ccc(S(N)(=O)=O)cc2)cc1 — higher, 196 to 198 °C
- COC1CC(CNC(=O)Nc2ccc([N+](=O)[O-])cc2)C(OC)O1 (configuration not stated) — higher, 172 to 174 °C
- COC(=O)c1ccc(OC)cc1OC(=S)N(C)C — lower, 117 to 120 °C
- CCc1ccc2c(c1)C(c1ccccc1F)=NCc1cnc(C)n1-2 — lower, 152 to 154 °C
- CC(C)NCC1(O)COc2ccc([N+](=O)[O-])cc2OC1 (configuration not stated) — lower, 97.5 to 99 °C
- CN1CCC(=O)N(c2ccccc2)c2cc(Cl)ccc21 — lower, 143 to 144 °C
- CCOC(=O)c1cccn1Cc1ccc(Cl)cc1N — lower, 104 to 107 °C
- Clc1ccc2cc3ccccc3cc2c1 — higher, 220 to 221 °C
- Cc1cc(C#N)cc(C)c1C(=O)CBr — lower, 76 °C
- CCN(CC)c1ccc(C=CC(=O)C=Cc2ccc(N(CC)CC)cc2)cc1 — higher, 168 °C
- COc1ccc2cc(CCc3ccc(OCC(O)CNC(C)C)cc3)n(C)c(=O)c2c1 (configuration not stated) — lower, 137 to 139 °C
- CCC(CC)Nc1cc(C(=O)O)ccc1N1CCCC1=O — higher, 178 to 180 °C
- Clc1cc(OC(Cl)(Cl)Cl)nc(Cl)n1 — lower, 55 to 56 °C
- COc1ccc(-c2nc(SC(F)(F)C(F)F)[nH]c2-c2ccncc2)cc1 — higher, 212 to 214 °C
- O=S(=O)(Nc1ccccc1OCc1csc(-c2ccccc2)n1)C(F)(F)F — lower, 123 to 125 °C
- COc1ccc(CCN2CCC(C(=O)O)(S(=O)(=O)c3ccc(OC)cc3)CC2)cc1 — higher, 205 °C
- CCN1c2ncc(COc3cccc(OC)c3)cc2C(=O)N(C)c2ccc(Cl)nc21 — lower, 95 to 97 °C
- CCOC(=O)CN(CCOc1cc2cc3c(Nc4cc(OC)c(Cl)cc4C)c(C#N)cnc3cc2cc1OCC)CC(=O)OCC — lower, 70 to 71 °C
- CCCCCCCC(=O)NCCCCOS(C)(=O)=O — lower, 59 to 60 °C
- O=C(O)CN(C(=O)OCc1ccccc1)c1ccc(O)cc1 — higher, 196 to 198 °C
- CN(C)CCC1CSc2c(C(=O)O)c(=O)c3cc(F)c(N4CCN(C)CC4)cc3n21 (configuration not stated) — higher, 221 to 223 °C
- COc1ccc(-c2nc(-c3cccn3C)[nH]c2-c2ccc(OC)cc2)cc1 — lower, 110 °C
- COc1c(Cl)ccc(-c2cc(N)c(Cl)c(C(=O)NOCC(C)C)n2)c1F — lower, 145 to 148 °C
- CCOCC1(O)c2ccccc2CCc2cc(OC)c(OC)cc21 (configuration not stated) — lower, 98 to 100 °C
- CS(=O)(=O)Nc1ccc(NCC2CCNCC2)c(C(=O)Nc2ccc(Cl)cn2)c1 — higher, 223 to 226 °C
- O=C(Nc1ccc(C(F)(F)F)cc1)NC1CCN(S(=O)(=O)c2ccccc2)CC1 — higher, 248 to 252 °C
- NS(=O)(=O)c1cccc(NC(=O)c2cnn3c(C(F)F)cc(-c4ccc(Cl)c(Cl)c4)nc23)c1 — higher, 306 °C
- N#CC(C#N)=C1Sc2cnn(-c3ccccc3)c(=O)c2S1 — higher, 240 °C
- COc1ccc2[nH]c(C(C)=NO)cc2c1 — lower, 148 to 150 °C
- CCC(=O)COc1ccc(CC2SC(=O)NC2=O)cc1 (configuration not stated) — lower, 142 to 146 °C
- O=C(O)c1ccccc1C(=O)c1cccc(NC(=O)c2ccn3c2CSC3c2cccnc2)c1 (configuration not stated) — higher, 315 °C
- CN1CCN(CC2CCN(c3ccc(Nc4ncc5ccc(-c6cccc(S(=O)(=O)NC(C)(C)C)c6)n5n4)cc3)CC2)CC1 — higher, 233 to 235 °C
- Nc1ccc(Sc2ccccc2)nc1N — lower, 119 to 122 °C
- CCCCNc1c(C(=O)OCC)cnc2onc(C)c12 — lower, 60 °C
- CC(C)c1nn(-c2ncc(C#N)cn2)cc1CCCO — lower, 153 to 154 °C
- Cc1cccc(S(=O)(=O)N=CN(C)C)c1C#N — higher, 168 to 174 °C
- NC(=O)c1cc(F)cc(-c2cccc3cc(Cc4cccc(C(F)(F)F)c4)sc23)c1 — higher, 165 to 166 °C
- CCCOc1nsc(NC(=O)NC)c1C#N — higher, 220 °C
- Cc1oc(-c2ccco2)nc1COc1ccc(CO)cc1Br — lower, 141 to 142 °C
- ON=C(c1ccccc1)c1ccc(C(=NO)c2ccccc2)cc1 — higher, 230 to 233 °C
- Fc1ccc(-c2ncn(CCCOc3ccccc3)c2-c2ccncc2)cc1 — lower, 95 to 96 °C
- CC(C)(C)OC(=O)CCN1CCC(O)(c2ccc(O)cc2CO)CC1 — lower, 68 to 70 °C
- COc1ccc(-c2onc3ccc(Br)cc23)cc1 — lower, 137 °C
- COc1ccc(CN2C(=O)C(c3cc4c(C)noc4cc3O)c3ccccc32)cc1 (configuration not stated) — higher, 195 to 197 °C
- COc1ccc(C=C2CCN(C(=O)OCc3ccccc3)CC2)cc1[N+](=O)[O-] — lower, 107 to 108 °C
- COC(=O)c1ccccc1NC1C=CC(=O)O1 (configuration not stated) — higher, 172 to 173 °C
- COc1cc(C)c(C(=O)c2c(C)cccc2OC)c(OC)c1OC — lower, 84 °C
